Measurements taken from the supplement of paper PMC10627819.

Columns and labels:
S. aureus DSM 20231 [1] = assay: fitness (endpoint OD595 vs no drug) (fraction); higher = more growth
Procedure, shortened: (§1)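 Growth medium was TSB, LB Lennox or CY, and plates were kept at 37 °C. Inoculation was at OD595 0.01 in 384-well plates, at 30 µl per well or 55 µl for S. pneumoniae. OD595 was monitored every 30 min for 14 h and background-subtracted using the first reading. Fitness is the optical density on entering stationary phase divided by the robust mean of no-drug controls, with values capped at 1.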

S. aureus Newman [2] = assay: as above
Procedure, shortened: as §1

S. pneumoniae D39V [3] = assay: as above
Procedure, shortened: as §1

B. subtilis 168 = assay: Bliss interaction score (quartile over a dose matrix) (fitness difference); higher = more antagonism (negative = synergy)
Procedure, shortened: (§2)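 Each OD595 reading at entry into stationary phase was scaled to the robust mean of the untreated wells on its plate, with a ceiling of 1. These ratios define fitness, and single-drug fitness was inferred from combinations. The Bliss score compares observed fitness with the product-based expectation and is reported as quartiles across all replicate types, technical, biological and donor/recipient.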

S. aureus DSM 20231 [4] = assay: as above
Procedure, shortened: as §2

S. aureus Newman [5] = assay: as above
Procedure, shortened: as §2

S. pneumoniae D39V [6] = assay: as above
Procedure, shortened: as §2
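Throughout, for Bliss interaction score (quartile over a dose matrix): first quartile when negative (synergy) and third quartile when positive (antagonism).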
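Throughout, for fitness (endpoint OD595 vs no drug): OD595 on entry to stationary phase over no-drug wells; at most 1.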

COc1cccc2c1C(=O)c1c(O)c3c(c(O)c1C2=O)C[C@@](O)(C(=O)CO)C[C@@H]3O[C@H]1C[C@H](N)[C@H](O)[C@H](C)O1 [Doxorubicin] + Cn1nnc(-c2ccc(-c3ccc(N4C[C@H](CO)OC4=O)cc3F)cn2)n1 [Tedizolid]
fitness
Conditions | partner 0.03125 µg/mL | partner 0.0625 µg/mL | partner 0.125 µg/mL | partner 0.25 µg/mL | partner 0.5 µg/mL
S. aureus DSM 20231 [1], first compound 0.625 µg/mL | – | 0.813 | 0.728 | 0.339 | –
S. aureus DSM 20231 [1], first compound 1.25 µg/mL | – | 0.783 | 0.7 | 0.374 | –
S. aureus DSM 20231 [1], first compound 2.5 µg/mL | – | 0.738 | 0.673 | – | –
S. aureus Newman [2], first compound 0.625 µg/mL | – | 0.786 | 0.758 | – | –
S. aureus Newman [2], first compound 1.25 µg/mL | – | 0.751 | 0.731 | – | –
S. aureus Newman [2], first compound 2.5 µg/mL | – | 0.693 | 0.655 | – | –
S. pneumoniae D39V [3], first compound 0.25 µg/mL | 0.897 | 0.909 | 0.747 | 0.288 | 0.131
S. pneumoniae D39V [3], first compound 0.5 µg/mL | 0.903 | 0.938 | 0.748 | 0.288 | 0.114
S. pneumoniae D39V [3], first compound 1 µg/mL | 0.917 | 0.953 | 0.774 | 0.282 | 0.11

Conditions | Bliss interaction score
B. subtilis 168 | 0.0912
S. aureus DSM 20231 [4] | -0.0759
S. aureus Newman [5] | -0.0534
S. pneumoniae D39V [6] | -0.0807

CO/N=C(\C(=O)N[C@@H]1C(=O)N2C(C(=O)O)=C(COC(C)=O)CS[C@H]12)c1csc(N)n1 [Cefotaxime] + CN[C@H](CC(C)C)C(=O)N[C@H]1C(=O)N[C@@H](CC(N)=O)C(=O)N[C@H]2C(=O)N[C@H]3C(=O)N[C@H](C(=O)N[C@H](C(=O)O)c4cc(O)cc(O)c4-c4cc3ccc4O)[C@H](O)c3ccc(c(Cl)c3)Oc3cc2cc(c3O[C@@H]2O[C@H](CO)[C@@H](O)[C@H](O)[C@H]2O[C@H]2C[C@](C)(N)[C@H](O)[C@H](C)O2)Oc2ccc(cc2Cl)[C@H]1O [Vancomycin]
Conditions | fitness
S. aureus DSM 20231 [1], first compound 0.039 µg/mL, partner 0.1875 µg/mL | 0.791
S. aureus DSM 20231 [1], first compound 0.039 µg/mL, partner 0.375 µg/mL | 0.78
S. aureus DSM 20231 [1], first compound 0.039 µg/mL, partner 0.75 µg/mL | 0.805
S. aureus DSM 20231 [1], first compound 0.078 µg/mL, partner 0.1875 µg/mL | 0.715
S. aureus DSM 20231 [1], first compound 0.078 µg/mL, partner 0.375 µg/mL | 0.795
S. aureus DSM 20231 [1], first compound 0.078 µg/mL, partner 0.75 µg/mL | 0.752
S. aureus DSM 20231 [1], first compound 0.156 µg/mL, partner 0.1875 µg/mL | 0.629
S. aureus DSM 20231 [1], first compound 0.156 µg/mL, partner 0.375 µg/mL | 0.698
S. aureus DSM 20231 [1], first compound 0.156 µg/mL, partner 0.75 µg/mL | 0.772
S. aureus DSM 20231 [1], first compound 0.312 µg/mL, partner 0.1875 µg/mL | 0.641
S. aureus DSM 20231 [1], first compound 0.312 µg/mL, partner 0.375 µg/mL | 0.733
S. aureus DSM 20231 [1], first compound 0.312 µg/mL, partner 0.75 µg/mL | 0.82
S. aureus Newman [2], first compound 0.078 µg/mL, partner 0.1875 µg/mL | 0.723
S. aureus Newman [2], first compound 0.078 µg/mL, partner 0.375 µg/mL | 0.758
S. aureus Newman [2], first compound 0.078 µg/mL, partner 0.75 µg/mL | 0.761
S. aureus Newman [2], first compound 0.156 µg/mL, partner 0.1875 µg/mL | 0.62
S. aureus Newman [2], first compound 0.156 µg/mL, partner 0.375 µg/mL | 0.648
S. aureus Newman [2], first compound 0.156 µg/mL, partner 0.75 µg/mL | 0.614
S. aureus Newman [2], first compound 0.625 µg/mL, partner 0.1875 µg/mL | 0.0427
S. aureus Newman [2], first compound 0.625 µg/mL, partner 0.375 µg/mL | 0.0413
S. aureus Newman [2], first compound 0.625 µg/mL, partner 0.75 µg/mL | 0.0855
S. aureus Newman [2], first compound 1.25 µg/mL, partner 0.1875 µg/mL | 0.0418
S. aureus Newman [2], first compound 1.25 µg/mL, partner 0.375 µg/mL | 0.0511
S. aureus Newman [2], first compound 1.25 µg/mL, partner 0.75 µg/mL | 0.0481
S. aureus Newman [2], first compound 2.5 µg/mL, partner 0.1875 µg/mL | 0.036
S. aureus Newman [2], first compound 2.5 µg/mL, partner 0.375 µg/mL | 0.0526
S. aureus Newman [2], first compound 2.5 µg/mL, partner 0.75 µg/mL | 0.0388
S. pneumoniae D39V [3], first compound 0.0018 µg/mL, partner 0.03125 µg/mL | ≥ 1
S. pneumoniae D39V [3], first compound 0.0018 µg/mL, partner 0.0625 µg/mL | 0.892
S. pneumoniae D39V [3], first compound 0.0018 µg/mL, partner 0.125 µg/mL | 0.907
S. pneumoniae D39V [3], first compound 0.0018 µg/mL, partner 0.25 µg/mL | 0.909
S. pneumoniae D39V [3], first compound 0.0018 µg/mL, partner 0.5 µg/mL | 0.0621
S. pneumoniae D39V [3], first compound 0.0035 µg/mL, partner 0.03125 µg/mL | 0.94
S. pneumoniae D39V [3], first compound 0.0035 µg/mL, partner 0.0625 µg/mL | 0.803
S. pneumoniae D39V [3], first compound 0.0035 µg/mL, partner 0.25 µg/mL | 0.793
S. pneumoniae D39V [3], first compound 0.0035 µg/mL, partner 0.5 µg/mL | 0.047
S. pneumoniae D39V [3], first compound 0.007 µg/mL, partner 0.25 µg/mL | 0.257
S. pneumoniae D39V [3], first compound 0.007 µg/mL, partner 0.5 µg/mL | 0.0521

fitness, S. aureus Newman [2], one replicate
Conditions | partner 0.1875 µg/mL | partner 0.375 µg/mL | partner 0.75 µg/mL
first compound 0.039 µg/mL | 0.732 | 0.867 | 0.784
first compound 0.312 µg/mL | 0.34 | 0.353 | 0.395

Conditions | Bliss interaction score
B. subtilis 168 | -0.0945
S. aureus DSM 20231 [4] | -0.0428
S. aureus Newman [5] | -0.0425
S. pneumoniae D39V [6] | -0.084
